# Measurements taken from paper PMC3605511, “Tumor P-Glycoprotein Correlates with Efficacy of PF-3758309 in in vitro and in vivo Models of Colorectal Cancer” (Frontiers in Pharmacology, 2013).
# Legend:
# SW837 = experiment: Cell proliferation assay, SW837; type: cell-based; conditions: Homo sapiens; SW837, 72 h, SRB assay
# Procedure: Cytotoxic/proliferation effects were determined using the sulforhodamine B (SRB) assay (Skehan et al., [1990]) or by resazurin. Briefly, cells in logarithmic growth phase were transferred to 96 well flat bottom plates with lids. One-hundred microliter cell suspensions containing 1500–5000 viable cells were plated into each well and incubated overnight prior to exposure with increasing concentrations of PF-309 for 3–5 days, dependent upon cell type. Media was removed and cells were fixed with cold 10% trichloroacetic acid for 30 min at 4°C. Cells were then washed with water and stained with 0.4% SRB (Fisher Sci., Pittsburgh, PA, USA) for 30 min at room temperature, washed again with 1% acetic acid, followed by stain solubilization with 10 mM tris at room temperature. The plate was then read on a plate reader (Biotek Synergy 2, Winooski, VT, USA) set at an absorbance wavelength of 565 nm. Cell proliferation curves were derived from the raw absorbance (OD) data.
# Since PF-309 appeared to be a strong P-gp and BCRP substrates, we sought to evaluate if the transporters influenced sensitivity in vitro. We evaluated the sensitivity of CRC cell lines to PF-309 treatment in a panel of 27 lines. Cells were exposed to PF-309 at a range of concentrations for 72 h and cell content measured by SRB assay (see Pitts et al., [2013]). […]
# [1] = Tumor concentration 6 h after a single dose, P-gp tumor concentration study; type: in vivo, mice; conditions: single dose 25 mg/kg, 6 h post treatment; SW480 and HCT15 vs GEO and HCT116 xenografts
# Procedure: Plasma and tumor samples were collected 1 h post treatment at the end of therapeutic studies or 6 h post treatment for P-gp tumor concentration studies. PF-309 was measured in mouse plasma and tumor tissue using a validated LC/MS/MS assay carried out by the University of Colorado Cancer Center Pharmacology Shared Resource. Positive ion electrospray ionization (ESI) mass spectra were obtained with a 3200 QTrap triple quadrupole mass spectrometer (Applied Biosystems Inc., Foster City, CA, USA) with a turboionspray source interfaced to an Agilent 1200 Series binary HPLC system (Agilent Technologies Inc., Santa Clara, CA, USA), and a HTC-PAL auto-sampler (LEAP Technologies, Carrboro, NC, USA). […]
# Finally, we determined if the presence of P-gp affects tumor concentration. We evaluated the tumor concentration in two tumor xenograft lines with high ABCB1 gene expression (SW480 and HCT15) and two tumor xenografts with low ABCB1 gene expression (GEO and HCT116). Tumors from animals treated with a single dose of 25 mg/kg PF-309 were collected 6 h post treatment and concentrations analyzed. […] Tumors were also analyzed by western blot to confirm the presence or absence of P-gp, which agreed with the gene expression data (Figure 7B).
# [2] = tested on: HCT15 cell line xenograft; experiment: CRC cell line xenograft efficacy, HCT15; type: in vivo, mice; conditions: 25 mg/kg orally twice daily, 14–28 days, end of study tumor volumes
# Procedure: For cell line xenografts, CRC cells were harvested in exponential phase growth and resuspended in a 1:1 mixture of serum-free RPMI 1640 and Matrigel (BD Biosciences). Five to ten million cells per mouse were injected subcutaneously into the flank using a 23-gauge needle. Mice were monitored daily for signs of toxicity and were weighed twice weekly. Tumor size was evaluated twice per week by caliper measurements using the following formula: tumor volume = length × width^2 × 0.52. When tumors reached 200–300 mm^3 mice were randomized into two groups with at least 10 tumors per group. Mice were then treated for 14–28 days (until control tumor volume reach ∼1500 mm^3) with either vehicle control (0.5% methylcellulose), or PF-3758309 (25 mg/kg) twice daily by oral gavage.
# Human tumor xenograft models were used to evaluate the efficacy of PF-309 in vivo. Eleven different CRC cell line tumor xenografts were treated with 25 mg/kg PF-309 twice daily by oral gavage for 14–28 days (until control tumor volumes reached ∼1500 mm^3). Tumor volumes were measured throughout the study and the % growth inhibition was calculated from the average end of study tumor volumes by:
# % Growth Inhibition= (average control volume−average treated volume)/average control volume×100%
smiles,measurement,setting,value
Cc1nc(Nc2n[nH]c3c2CN(C(=O)N[C@H](CN(C)C)c2ccccc2)C3(C)C)c2sccc2n1 [PF-309],IC50,SW837,> 1000 nM
same,"tumor concentration, high tumor P-gp vs low ABCB1 expression",[1],∼four fold lower
same,% Growth inhibition,[2],18%
